Laboratory results taken from US20110052732A1, “MINERAL ABSORPTION ACCELERATOR AND IRON DEFICIENCY ANEMIA IMPROVER OF FOOD COMPOSITION” (FUJIFILM Corporation, priority 2008, published 2011).

Test system: SD rats
Experiment: Mineral balance test in rats (absorption rate, internal retention rate, serum concentration)
Format: in vivo, rat
Details: oral aqueous solution 2.0 g/day; for Absorption rate of calcium / Absorption rate of iron / Absorption rate of magnesium / Absorption rate of zinc / Internal retention rate of calcium / Internal retention rate of iron / Internal retention rate of magnesium / Internal retention rate of zinc: 14 days, then urine and feces collected for 4 days
Text: SD rats (males) of 4 weeks of age after birth were preliminarily reared for 1 week and then divided into a control group and 6 sample ingestion groups, each group consisting of 6 animals, at random based on body weight. In the rats of salacinol administration group, 0.1% salacinol aqueous solution was orally administered at a dose of 2.0 g/day per unit weight of rat. In the rats of voglibose administration group, 0.4% voglibose aqueous solution was orally administered at a dose of 2.0 g/day per unit weight of rat. In the rats of acarbose administration group, 0.4% acarbose aqueous solution was orally administered at a dose of 2.0 g/day per unit weight of rat. In the rats of Salacia extract powder administration group, 1% Salacia extract powder aqueous solution was orally administered at a dose of 2.0 g/day per unit weight of rat. In the rats of mulberry extract powder administration group, 1% mulberry extract powder aqueous solution was orally administered at a dose of 2.0 g/day per unit weight of rat. In the rats of Salacia extract powder+green tea extract administration group, 1% Salacia extract powder+1% green tea extract mixed aqueous solution was orally administered at a dose of 2.0 g/day per unit weight of rat. In the rats of control group, water was orally administered at a dose of 2.0 g/day per unit weight of rat. Each rat was reared with a solid feed (CRF-1 mfd. by Oriental Yeast) for 14 days and then transferred into a cage for metabolism analysis, and urine and feces were collected for a period of 4 days to measure concentrations of iron, calcium, magnesium and zinc. Detection of minerals from feces was carried out using inductively coupled plasma emission spectrometry, and those from urine and serum using atomic absorption method. Absorption rate and internal holding rate of each mineral were calculated using the following formulae. Absorbed amount=ingested amount−discharged amount into feces Absorption rate (%)=absorbed amount÷ingested amount×100 Internally retained amount=absorbed amount−discharged amount into urine Internal retention rate (%)=internally retained amount÷ingested amount×100 Results of the absorption rate and internal retention rate of minerals and concentration of mineral in serum by the mineral balance test are respectively shown in Tables 3 to 5.

OCC(CO)N[C@H]1C[C@](O)(CO)[C@@H](O)[C@H](O)[C@H]1O [Voglibose, voglibose]
Absorption rate of calcium: 32.5% | Absorption rate of iron: 37.8% | Absorption rate of magnesium: 21.2% | Absorption rate of zinc: 29.8% | Internal retention rate of calcium: 32.1% | Internal retention rate of iron: 33.9% | Internal retention rate of magnesium: 24.0% | Internal retention rate of zinc: 18.6% | Concentration of calcium in serum: 10.9 mg/dL | Concentration of iron in serum: 292.5 µg/dL | Concentration of magnesium in serum: 2.04 mg/dL | Concentration of zinc in serum: 120.2 µg/dL

C[C@H]1O[C@H](O[C@H]2[C@H](O)[C@@H](O)[C@@H](O[C@H]3[C@H](O)[C@@H](O)C(O)O[C@@H]3CO)O[C@@H]2CO)[C@H](O)[C@@H](O)[C@@H]1N[C@H]1C=C(CO)[C@@H](O)[C@H](O)[C@H]1O (stereo partly drawn) [Acarbose, acarbose]
Absorption rate of calcium: 32.8% | Absorption rate of iron: 37.5% | Absorption rate of magnesium: 20.8% | Absorption rate of zinc: 29.3% | Internal retention rate of calcium: 31.5% | Internal retention rate of iron: 32.8% | Internal retention rate of magnesium: 23.1% | Internal retention rate of zinc: 18.4% | Concentration of calcium in serum: 10.9 mg/dL | Concentration of iron in serum: 289.3 µg/dL | Concentration of magnesium in serum: 2.01 mg/dL | Concentration of zinc in serum: 121.3 µg/dL

O=S(=O)([O-])O[C@@H](CO)[C@H](O)C[S@+]1C[C@@H](O)[C@H](O)[C@H]1CO [Salacinol]
Absorption rate of calcium: 33.2% | Absorption rate of iron: 38.5% | Absorption rate of magnesium: 20.5% | Absorption rate of zinc: 30.1% | Internal retention rate of calcium: 32.3% | Internal retention rate of iron: 34.2% | Internal retention rate of magnesium: 23.6% | Internal retention rate of zinc: 19.5% | Concentration of calcium in serum: 11.8 mg/dL | Concentration of iron in serum: 298.6 µg/dL | Concentration of magnesium in serum: 2.06 mg/dL | Concentration of zinc in serum: 122.7 µg/dL
